Data: PubChem BioAssay AID463074 (Broad Institute, 2010)
The source made the active and inactive calls.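 How the source made its calls: active means AC50 no more than tenfold above the top dose tested, or full inhibition at every dose with a flat fit (cut at about 19 µM in these data); inconclusive means flat curve fit with inhibition between 30% and 70%, or poor fit; inactive means AC50 more than tenfold above the top dose tested.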

Each compound was assayed on HMLE_sh_eGFP viability, CellTiter-Glo luminescence, 72 h (assay: cytotoxicity in HMLE control line with eGFP shRNA, dose response, counter-screen for HMLE_sh_ECad selective toxicity project, cell-based, HMLE_sh_eGFP, luminescence (AID 463074);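 further: counterscreen control line to flag general toxicity for the HMLE_sh_ECad screen; potency for loss of viability as luminescence drops below DMSO wells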).
COc1cc(/C=N/N(c2ccccc2)c2ccccc2)ccc1O was tested, and the AC50 was 6.34 µM. For CC(C)(C)c1ccc(OCC(=O)N/N=C/c2cc(Br)ccc2OC(=O)c2ccco2)cc1, the AC50 was 3.61 µM. In the case of CCn1c2ccccc2c2cc(NC(=O)c3cc(OC)cc(OC)c3)ccc21, the AC50 is reported as 0.258 µM. Compound NC(=O)CC(NC(=O)Cc1cccc2ccccc12)c1ccc(NCc2ccc(F)cc2)c([N+](=O)[O-])c1 (stereo not drawn) has an AC50 of 19.8 µM. With O=C(/C=C/c1ccccc1)NC(=S)NNC(=O)c1cnccn1 the AC50 was 6.84 µM. Work on CCOC(=O)[C@@H]1[C@H]2COc3cc(OC)ccc3[C@H]2N2C(=O)N(c3ccc(C(F)(F)F)cc3)C(=O)[C@]12C yielded an AC50 of 4.62 µM. Work on C=CCn1cccc(/C=C/C(=O)c2ccc(C(C)(C)C)cc2)c1=S yielded an AC50 of 6.19 µM. Cc1ccc(-c2cc([C@H]3[C@@H]4C=CCC[C@@]4(C)C(=O)N3Cc3ccccc3)ccc2F)cc1 gave an AC50 of 5.2 µM. For CCCCOc1ccc(C(=O)C(CN2CCOCC2)c2ccccc2)cc1 (stereo not drawn), the AC50 was 6.76 µM. Work on CC(C)COC(=O)c1cccc2c1-c1ccccc1/C2=N\O yielded an AC50 of 5.27 µM. Work on CCC(C)n1ncn(-c2ccc(N3CCN(c4ccc(O)cc4)CC3)cc2)c1=O (stereo not drawn) yielded an AC50 of 1.47 µM. For O=C(/C=C/Sc1ccccc1)c1ccc(Cl)cc1, the AC50 was 4.56 µM. For CCN1C(=O)/C(=C\c2ccncc2)SC1=Nc1ccc(C)c(C)c1, the AC50 was 6.82 µM. O=S(=O)(Nc1ccc(-c2nnc(SCc3ccc(Cl)cc3)o2)cc1)c1ccccc1 gave an AC50 of 3.6 µM. For CCN1CCN(CCNC(=O)c2ccc3c(c2)N(Cc2ccc(F)cc2)C(=O)/C(=C/c2ccccc2)S3)CC1, the AC50 was 3.71 µM. Work on CCCCN(C)c1nc(-c2ccco2)c2c(c1C#N)CC(C)(C)OC2 yielded an AC50 of 11.7 µM. In the case of COCCNc1nnc(SC(C)C(=O)Nc2ccc(-c3nc4ccc(C)cc4s3)cc2)s1 (stereo not drawn), the AC50 is reported as 10.5 µM. Cn1cccc1/C=C1\SC(=S)N(Nc2ccccc2)C1=O was tested, and the AC50 was 2.31 µM. CCCCOC(=O)c1c(C)oc2ccc(NS(=O)(=O)c3ccc4c5c(cccc35)C(=O)N4)cc12 was tested, and the AC50 was 9.12 µM. For O=C1C2C3C=CC(C3)C2C(=O)N1c1ccc(N2CCN(c3ccccn3)CC2)c([N+](=O)[O-])c1 (stereo not drawn), the AC50 was 3.42 µM. CC(C)(C)c1ccc(Cn2nnc3c(=O)[nH]c(C4CCCN(C(=O)c5cccs5)C4)nc32)cc1 (stereo not drawn) showed an AC50 of 14.6 µM. For CN1CCN(C2Cc3ccc(F)cc3Sc3cc(F)c(Cl)cc32)CC1 (stereo not drawn), the AC50 was 5.49 µM. FC(F)(F)c1ccc(C2[C@H]3CN(Cc4cccnc4)[C@H](c4ccccc4)C34CC2(c2cccnc2)C4)cc1 (stereo partly drawn) gave an AC50 of 3.67 µM. CCOC(=O)c1ccc(-n2[nH]c(-c3ccccc3)cc2=O)cc1 gave an AC50 of 7.96 µM. CC(C)C[C@@H](CO)N(Cc1ccccc1)S(=O)(=O)N(Cc1ccccc1)[C@@H](CO)CC(C)C gave an AC50 of 3.87 µM. In the case of C(=C\c1nc(N2CCCCCC2)c2ccccc2n1)/c1ccccc1, the AC50 is reported as 5.54 µM. Work on O=C(Nc1nnc(-c2ccc(Cl)cc2)o1)c1nc2ccccc2s1 yielded an AC50 of 5.29 µM. For Cc1cccc(N=N/C(=C\O)C(=O)c2cccs2)c1, the AC50 was 6.25 µM. Cc1cc(C)nc(SCc2ccc(C(=O)N/N=C/c3cccc(O)c3O)cc2)n1 showed an AC50 of 3.71 µM. In the case of COc1ccc(-c2c(-c3cc(OC)cc(OC)c3)n(C)c3ccc(-c4cc(F)cc(OC)c4)cc23)cc1, the AC50 is reported as > 19.5 µM (inactive). O=C(NNC(=O)c1cc(Cl)ccc1O)c1ccc(NS(=O)(=O)c2cccs2)cc1 gave an AC50 of 8.13 µM. For COc1cccc(Cn2nnc(C(=O)Nc3cc(Cl)ccc3OC)c2N)c1, the AC50 was 0.935 µM. For C=C(C)COc1ccc(-c2n[nH]c(C)c2-c2ccc(OC)c(OC)c2)c(O)c1, the AC50 was 2.65 µM. With O=C(/C=C/c1ccc2c(c1)OCO2)NCCSCc1c(Cl)cccc1Cl the AC50 was 2 µM. Cc1ccc(S(=O)(=O)Nc2ccc(-c3csc(-c4ccccc4)n3)cc2)cc1 gave an AC50 of 6.85 µM. Compound Cc1ccc(C)c(OCCCCN2CCNCC2)c1C has an AC50 of 6.15 µM. O=C1CC(=Nc2ccccc2)NN1c1ccccc1 showed an AC50 of 12.4 µM. With O=C(/C=C/c1c[nH]c2ccccc12)c1cccc2ccccc12 the AC50 was 5.3 µM. In the case of CNC(=O)c1c(NC(=O)c2ccc(S(=O)(=O)N3CCCc4ccccc43)cc2)sc2c1CCN(C)C2, the AC50 is reported as 0.987 µM. For CS(=O)(=O)c1ccc(C(=O)OCC(=O)NC23CC4CC(CC(C4)C2)C3)cc1[N+](=O)[O-], the AC50 was 2.39 µM. COc1ccc(N/N=C(/C(C)=O)N2CCCc3ccccc32)cc1 was tested, and the AC50 was 13.2 µM. Compound CCN1CCN(Cc2ccc(NC(=O)c3cc(NC(=O)c4cnn(-c5ccccc5)c4N)cc(OC)c3)cc2C(F)(F)F)CC1 has an AC50 of 6.76 µM. COc1cc(Nc2ccc(C)cc2)c([N+](=O)[O-])nc1[N+](=O)[O-] showed an AC50 of 5.74 µM. Compound Cc1cccc(OCc2n(CC(=O)OC3CC(C)CCC3C(C)C)c3ccccc3[n+]2C)c1 (stereo not drawn) has an AC50 of 3.47 µM. CC(C)(C)[C@@H]1CCC(=O)N(CC[C@H](Sc2ccccc2)c2ccccc2)CC1 showed an AC50 of 3.95 µM. Work on CCCCN(CCCC)CCC(O)c1cc2c(Cl)cc(Cl)cc2c2cc(C(F)(F)F)ccc12 (stereo not drawn) yielded an AC50 of 7.54 µM. For CC1=CC(C)(C)N(S(=O)(=O)c2ccc(F)cc2)c2ccc(C)cc21, the AC50 was 2.61 µM. Work on CC(C)C[C@H](N)c1nnc(S(=O)(=O)Cc2ccc(F)cc2)o1 yielded an AC50 of 8.54 µM. In the case of O=C(Cc1ccc(F)cc1)Nc1nnc(SCC(=O)N2CCCCC2)s1, the AC50 is reported as > 19.5 µM (inactive). For O=C1c2ccccc2NC(c2ccc(-c3ccc(Br)cc3)o2)N1O (stereo not drawn), the AC50 was 5.06 µM. With CC1=CC(=O)C(C(C)C)=C/C1=C(\c1cc(C(C)C)c(OP(=O)(O)O)cc1C)c1ccccc1C(=O)O the AC50 was 3.6 µM. With CC(C)(C)OC(=O)NCc1ccc(NC(=O)c2nc[nH]c2C(=O)NCCCNC(=O)c2[nH]cnc2C(=O)Nc2ccc(CNC(=O)OC(C)(C)C)cc2)cc1 the AC50 was 1.92 µM. Work on COc1ccc(-c2cc(C(F)(F)F)nc(S(C)(=O)=O)n2)cc1 yielded an AC50 of 3.56 µM. N#C/C(=C/c1cn(-c2ccccc2)nc1-c1cccc(OCc2ccccc2)c1)C(=O)NCCCn1ccnc1 showed an AC50 of 6.25 µM. With CCCCCCCCCCS(=O)(=O)N/N=C/c1ccc([N+](=O)[O-])cc1 the AC50 was 12.9 µM. For CCCCNc1c(-c2cccc(Sc3ccc(OC)cc3)c2)nc2ccccn12, the AC50 was 6.56 µM. Compound O=[N+]([O-])c1cccc(-c2csc(Nc3ccccc3)n2)c1 has an AC50 of 3.88 µM. CNC(CC(=O)c1ccc([N+](=O)[O-])cc1)C(Cl)(Cl)Cl (stereo not drawn) gave an AC50 of 3.96 µM. In the case of O=c1nc(/C=C/c2ccc(Cl)cc2Cl)cc(C(F)(F)F)[nH]1, the AC50 is reported as 1.55 µM. C=C(C)COc1ccc(-c2n[nH]c(C)c2-c2ccc(Br)cc2)c(O)c1 was tested, and the AC50 was 3.25 µM. Cc1ccc(C(=O)Nc2ncc(Cc3ccccc3)s2)o1 showed an AC50 of 1 µM. With C=C(C)Cn1c(SCC(=O)N/N=C/c2c(O)ccc3ccccc23)nc2ccccc2c1=O the AC50 was 5.62 µM. CC(C)(C)c1ccc(Oc2ccc(N)cc2)cc1 showed an AC50 of 13.5 µM. Work on CCOc1ccc2nc(NC3=NC(c4ccc(OC)cc4)CC(=O)N3)nc(C)c2c1 (stereo not drawn) yielded an AC50 of 7.28 µM. COc1ccc(Cc2nnc(N/N=C/c3ccccc3O)[nH]c2=O)cc1OC was tested, and the AC50 was 3.4 µM. With C[C@]12CC[C@H](O)C[C@H]1CC[C@@H]1[C@@H]2C[C@@H](O)[C@]2(C)[C@@H](C3=CC(=O)OC3)CC[C@]12O the AC50 was 0.654 µM. With COC(=O)c1c(-c2ccc(OC)cc2)oc2ccc(-c3cc(OC)c(OC)c(OC)c3)cc12 the AC50 was 4.97 µM. Compound O=S(=O)(Nc1ccc(-n2cccc2)cc1)c1ccc(Cl)c(Cl)c1 has an AC50 of 5.21 µM. For CC(C)N1C(=O)/C(=C\c2nc3ccccc3c(=O)n2-c2ccccc2)c2ccccc21, the AC50 was 9.85 µM. Compound CN1CCN(c2ccc([N+](=O)[O-])c(NCc3ccco3)c2)CC1 has an AC50 of 12.9 µM. With CCCCCCSc1cccc(-c2nc3ccccn3c2NCc2ccccc2)c1 the AC50 was 5.27 µM. With Cc1ccc(S(=O)(=O)N2CCCCC2)cc1NC(=O)Cn1ncc(Cl)c(Cl)c1=O the AC50 was 2.44 µM. For c1ccc(-c2sc3ccccc3c2-c2ccc(OCCN3CCOCC3)cc2)cc1, the AC50 was 3.24 µM.
